According to ChEMBL document CHEMBL1123832, “Structure-activity relationships in an imidazole-based series of thromboxane synthase inhibitors” (J Med Chem, 1987):
pIC50: −log10 of the molar value.

Each molecule was assayed against T1, Thromboxane-A synthase (Homo sapiens, UniProt P24557) (assay: Tested for inhibitory activity against intact human platelet TXA2 formation).
T1 sequence (P24557 whole entry): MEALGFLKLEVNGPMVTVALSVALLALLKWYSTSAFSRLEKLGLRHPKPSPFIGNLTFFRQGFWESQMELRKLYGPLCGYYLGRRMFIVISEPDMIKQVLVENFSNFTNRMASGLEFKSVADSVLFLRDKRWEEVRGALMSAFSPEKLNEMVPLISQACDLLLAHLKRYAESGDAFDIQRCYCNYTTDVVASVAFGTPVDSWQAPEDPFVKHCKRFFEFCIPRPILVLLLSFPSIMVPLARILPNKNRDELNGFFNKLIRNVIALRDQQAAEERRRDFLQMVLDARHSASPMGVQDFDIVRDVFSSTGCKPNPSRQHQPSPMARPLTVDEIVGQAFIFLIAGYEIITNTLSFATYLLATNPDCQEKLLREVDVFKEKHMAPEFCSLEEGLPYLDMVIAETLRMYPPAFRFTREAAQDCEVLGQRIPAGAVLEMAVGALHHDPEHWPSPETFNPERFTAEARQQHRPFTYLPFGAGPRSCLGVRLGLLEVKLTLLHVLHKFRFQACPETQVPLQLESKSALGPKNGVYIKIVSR
Format: functional

pIC50	SMILES
6.74	CCCOC(=O)c1ccc(COC(COCc2ccc(OC)cc2)Cn2ccnc2)cc1 (stereo unspecified)
4.60	COc1ccc(COCC(Cn2ccnc2)OCc2ccc(S(C)(=O)=O)cc2)cc1 (stereo unspecified)
6.27	CCOC(=O)c1ccc(COC(COCc2ccc(OC)cc2)Cn2ccnc2)cc1 (stereo unspecified)
6.15	CCOC(=O)c1ccc(COCC(Cn2ccnc2)OCc2ccc(C(=O)OCC)cc2)cc1 (stereo unspecified)
5.21	COc1ccc(COCC(Cn2ccnc2)OCc2ccc3c(c2)COC3=O)cc1 (stereo unspecified)
5.90	COC(=O)c1ccc(COC(COCc2ccc(OC)cc2)Cn2ccnc2)cc1 (stereo unspecified)
5.14	CCOC(=O)c1cccc(COC(COCc2ccc(OC)cc2)Cn2ccnc2)c1 (stereo unspecified)
4.68	CCCCCCCCOC(=O)c1ccc(COC(COCc2ccc(OC)cc2)Cn2ccnc2)cc1 (stereo unspecified)
5.27	CCCCN(C)C(=O)c1ccc(COC(COCc2ccc(OC)cc2)Cn2ccnc2)cc1 (stereo unspecified)
5.17	COc1ccc(COCC(Cn2ccnc2)OCc2ccc(C(=O)O)cc2)cc1 (stereo unspecified)
6.25	COc1ccc(COCC(Cn2ccnc2)OCc2ccc(C(=O)Oc3ccccc3)cc2)cc1 (stereo unspecified)
4.91	COc1ccc(COCC(Cn2ccnc2)OCc2ccc(C(=S)N(C)C)cc2)cc1 (stereo unspecified)
5.00	COc1ccc(COCC(Cn2ccnc2)OCc2ccc(OC)cc2)cc1 (stereo unspecified)
5.44	CCOC(=O)c1ccc(COCC(Cn2ccnc2)OCc2ccc(OC)cc2)cc1 (stereo unspecified)
5.07	COc1ccc(COCC(Cn2ccnc2)OCc2ccc([S+](C)[O-])cc2)cc1 (stereo unspecified)
5.83	COc1ccc(COCC(Cn2ccnc2)OCc2ccc(C(=O)OCc3ccccc3)cc2)cc1 (stereo unspecified)
5.79	COc1ccc(COCC(Cn2ccnc2)OCc2ccc(C(=O)OC(C)C)cc2)cc1 (stereo unspecified)
5.71	COc1ccc(COCC(Cn2ccnc2)OCc2ccc(C(=O)N(C)C)cc2)cc1 (stereo unspecified)
4.91	CCNC(=O)c1ccc(COC(COCc2ccc(OC)cc2)Cn2ccnc2)cc1 (stereo unspecified)
5.19	COc1ccc(COCC(Cn2ccnc2)OCc2ccc(SC)cc2)cc1 (stereo unspecified)
6.70	CCCCOC(=O)c1ccc(COC(COCc2ccc(OC)cc2)Cn2ccnc2)cc1 (stereo unspecified)
5.22	COc1ccc(COCC(Cn2ccnc2)OCc2ccc(C(N)=O)cc2)cc1 (stereo unspecified)

Each molecule was assayed against T1, Thromboxane-A synthase (assay: Compound was tested for inhibitory activity against human platelet microsomal TXA2 synthase).

pIC50	SMILES
5.28	CCOC(=O)c1ccc(COC(COCc2ccc(OC)cc2)Cn2ccnc2)cc1 (stereo unspecified)
5.96	COc1ccc(COCC(Cn2ccnc2)OCc2ccc(C(=O)O)cc2)cc1 (stereo unspecified)
5.15	COc1ccc(COCC(Cn2ccnc2)OCc2ccc(C(=O)OCc3ccccc3)cc2)cc1 (stereo unspecified)
5.70	CCCCOC(=O)c1ccc(COC(COCc2ccc(OC)cc2)Cn2ccnc2)cc1 (stereo unspecified)
